Test results reported in US12486278B2, “MASP-2 inhibitors and methods of use” (Omeros Corporation, priority 2019, dated 2025).
Where a name gives a salt, the structure may show the parent alone.

The molecules below were run against T1, MASP-2 (CCP1-CCP2-SP) (Homo sapiens, UniProt O00187) (assay: Enzymatic Assay for MASP-2 (fluorogenic substrate)). Details: fluorogenic substrate based on C2 cleavage site; room temperature, 20 min; 20 mM HEPES pH 7.4, 140 mM NaCl, 0.1% Tween 20.
T1 construct: 15 μL of Enzyme MASP-2 (CCP1-CCP2-SP) in Assay Buffer
T1 sequence (O00187 445-686 limits assumed): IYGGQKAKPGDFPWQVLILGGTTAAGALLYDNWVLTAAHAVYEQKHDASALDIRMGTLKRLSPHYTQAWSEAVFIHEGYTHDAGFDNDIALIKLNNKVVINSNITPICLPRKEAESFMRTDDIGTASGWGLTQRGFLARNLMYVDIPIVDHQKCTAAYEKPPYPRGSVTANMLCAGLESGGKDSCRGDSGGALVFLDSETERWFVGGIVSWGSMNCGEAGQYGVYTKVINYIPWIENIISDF
T1 sequence (O00187 298-444 partner limits assumed): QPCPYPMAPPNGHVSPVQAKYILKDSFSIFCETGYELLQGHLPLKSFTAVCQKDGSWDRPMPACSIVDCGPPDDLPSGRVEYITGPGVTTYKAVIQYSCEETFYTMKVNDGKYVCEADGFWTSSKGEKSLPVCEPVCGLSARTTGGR
Format: biochemical
Description: The MASP-2 assay utilizes a fluorogenic substrate, based on the cleavage site for its natural substrate C2. The assay is run at room temperature in an assay buffer containing 20 mM HEPES, pH 7.4, 140 mM NaCl and 0.1% Tween 20. Assay parameters are adjusted such that the assay is linear with respect to time, enzyme, and substrate concentrations. Under these optimized assays conditions, IC50 values are equivalent to Ki values, except in a few cases of “tight binding” inhibitors. Cases of “tight binding” or possible “slow binding” inhibitors are handled by the methods described in Copeland R. A. (2013) Evaluation of Enzyme Inhibitors in Drug Discovery. 2nd Ed., John Wiley and Sons, Inc., Chapters 5-7.
The MASP-2 assay protocol is carried out as follows. Test compounds are serially diluted in DMSO and then 100 nL of each dilution is transferred to the assay plate(s). 10 μL of Assay Buffer is added, followed by 15 μL of Enzyme MASP-2 (CCP1-CCP2-SP) in Assay Buffer. 15 μL of Substrate in Assay Buffer is then added and mixed to start the reactions. After 20 min at room temperature, 15 μL of a stop solution (0.1 M acetic acid) is added, mixed and the plates are read on a SpectraMax i3x Microplate Reader and exported as Excel files. Each assay plate included a “no inhibitor” (DMSO Only) control, a “no enzyme” control and a reference inhibitor control. % Activity values=100*(average test comp. fluorescence−average “no enzyme” fluorescence)/(average “DMSO only” fluorescence−average “no enzyme” fluorescence). IC50 and Ki values are very reproducible, falling well within ±2-fold.
`Cc1nc(N)ccc1CNC(=O)[C@H](C)NC(=O)[C@H]1C[C@H](Cc2cc(Cl)c(Cl)s2)CN1` [Compound I-18, (2R,4R)—N—((S)-1-(((6-Amino-2-Methylpyridin-3-Yl)Methyl)Amino)-1-Oxopropan-2-Yl)-4-((4,5-Dichlorothiophen-2-Yl)Methyl)Pyrrolidine-2-Carboxamide Di-Trifluoroacetate] was tested, and the Ki was < 500 nM. `Cc1nc(N)ccc1CNC(=O)[C@@H]1CCN1C(=O)[C@H]1C[C@H](Cc2ccc(-c3ccccc3)cc2)CN1` [Compound I-62, (S)-1-((2R,4S)-4-([1,1′-Biphenyl]-4-Ylmethyl)Pyrrolidine-2-Carbonyl)-N-((6-Amino-2-Methylpyridin-3-Yl)Methyl)Azetidine-2-Carboxamide Di-Trifluoroacetate] was tested, and the Ki was < 500 nM. In the case of `C[C@H](NC(=O)[C@H]1C[C@@H](c2ccccc2)CCN1)C(=O)NCc1cc2cnccc2[nH]1` [Compound I-90, (2R,4S)—N—((S)-1-(((1H-Pyrrolo[3,2-C]Pyridin-2-Yl)Methyl)Amino)-1-Oxopropan-2-Yl)-4-Phenylpiperidine-2-Carboxamide Di-Trifluoroacetate], the Ki is reported as < 500 nM. For `Cc1nc(N)ccc1CNC(=O)[C@H](C)NC(=O)[C@H]1C[C@@H](c2cccc(-n3cccn3)c2)CCN1` [Compound I-78, (2R,4S)-4-(3-(1H-Pyrazol-1-Yl)Phenyl)-N—((S)-1-(((6-Amino-2-Methylpyridin-3-Yl)Methyl)Amino)-1-Oxopropan-2-Yl)Piperidine-2-Carboxamide Dihydrochloride], the Ki was < 500 nM. In the case of `CC(NC(=O)[C@H]1C[C@@H](c2ccccc2)CCN1CC(=O)O)C(=O)NCc1cc2cnccc2[nH]1` (stereo in doubt) [Compound I-105, 2-((2R,4S)-2-(((S)-1-(((1H-pyrrolo[3,2-c]pyridin-2-yl)methyl)amino)-1-oxopropan-2-yl)carbamoyl)-4-phenylpiperidin-1-yl)acetic acid di-trifluoroacetate], the Ki is reported as < 500 nM. `C[C@H](NC(=O)[C@H]1C[C@H](Cc2ccnc(N)c2)CN1)C(=O)NCc1ccc(C(=N)N)cc1` [Compound I-56, (2R,4S)-4-((2-Aminopyridin-4-Yl)Methyl)-N—((S)-1-((4-Carbamimidoylbenzyl)Amino)-1-Oxopropan-2-Yl)Pyrrolidine-2-Carboxamide Di-Trifluoroacetate] was tested, and the Ki was < 500 nM. `C[C@H](NC(=O)[C@H]1C[C@H](Cc2ccccc2)CN1)C(=O)NCc1ccc2nccn2c1` [Compound I-59, (2R,4S)-4-Benzyl-N—((S)-1-((Imidazo[1,2-A]Pyridin-6-Ylmethyl)Amino)-1-Oxopropan-2-Yl Pyrrolidine-2-Carboxamide Trifluoroacetate] was tested, and the Ki was > 10000 nM. With `C[C@H](NC(=O)[C@H]1C[C@H](Cc2cccc(Cl)c2)CN1)C(=O)NCc1cc2cnccc2[nH]1` [Compound I-5, (2R,4S)—N—((S)-1-(((1H-Pyrrolo[3,2-c]pyridin-2-yl)methyl)amino)-1-oxopropan-2-yl)-4-(3-chlorobenzyl)pyrrolidine-2-carboxamide di-trifluoroacetate] the Ki was < 500 nM. `[2H]C([2H])([2H])n1cc(Cl)c2cc(CNC(=O)[C@H](C)NC(=O)[C@H]3C[C@H](Cc4ccccc4)CN3)cnc21` [Compound I-45, (2R,4S)-4-Benzyl-N—((S)-1-(((3-Chloro-1-(Methyl-D3)-1H-Pyrrolo[2,3-B]Pyridin-5-Yl)Methyl)Amino)-1-Oxopropan-2-Yl)Pyrrolidine-2-Carboxamide Hydrochloride] was tested, and the Ki was < 500 nM. In the case of `C[C@H](NC(=O)[C@H]1C[C@@H](c2ccc3ccccc3c2)CCN1)C(=O)NCc1ccc(C(=N)N)cc1` [Compound I-70, (2R,4S)—N—((S)-1-((4-Carbamimidoylbenzyl)Amino)-1-Oxopropan-2-Yl)-4-(Naphthalen-2-Yl)Piperidine-2-Carboxamide Di-Trifluoroacetate], the Ki is reported as < 500 nM. With `Cc1nc(N)ccc1CNC(=O)[C@@H]1COC(=O)N1C(=O)[C@H]1C[C@H](Cc2ccccc2)CN1` [Compound I-58, (S)—N-((6-Amino-2-Methylpyridin-3-Yl)Methyl)-3-((2R,4S)-4-Benzylpyrrolidine-2-Carbonyl)-2-Oxooxazolidine-4-Carboxamide Di-Trifluoroacetate] the Ki was < 500 nM. In the case of `C[C@H](NC(=O)[C@H]1C[C@H](Oc2ccccc2)CN1)C(=O)NCc1cnc2c(c1)c(Cl)cn2C` [Compound I-46, (2R,4S)—N—((S)-1-(((3-Chloro-1-Methyl-1H-Pyrrolo[2,3-B]Pyridin-5-Yl)Methyl)Amino)-1-Oxopropan-2-Yl)-4-Phenoxypyrrolidine-2-Carboxamide Trifluoroacetate], the Ki is reported as < 500 nM. For `Cc1cccc(C2CN[C@@H](C(=O)N[C@@H](C)C(=O)NCc3ccc(C(=N)N)cc3)C2)c1` (single isomer, unassigned) [Compound I-14, N-(1-((4-Carbamimidoylbenzyl)amino)-1-oxopropan-2-yl)-4-(m-tolyl)pyrrolidine-2-carboxamide], the Ki was < 500 nM. For `C[C@H](NC(=O)[C@H]1C[C@H](Cc2ccc(F)c(Cl)c2)CN1)C(=O)NCc1ccc(C(=N)N)cc1` [Compound I-23, (2R,4S)—N—((S)-1-((4-Carbamimidoylbenzyl)Amino)-1-Oxopropan-2-Yl)-4-(3-Chloro-4-Fluorobenzyl)Pyrrolidine-2-Carboxamide Di-Trifluoroacetate], the Ki was < 500 nM. For `C[C@H](NC(=O)[C@H]1C[C@H](c2ccccc2)CN1)C(=O)NCc1cc2c(Br)cncc2[nH]1` [Compound I-1, (2R,4R)—N—((S)-1-(((4-bromo-1H-pyrrolo[2,3-c]pyridin-2-yl)methyl)amino)-1-oxopropan-2-yl)-4-phenylpyrrolidine-2-carboxamide di-trifluoroacetate], the Ki was > 10000 nM. For `C[C@H](NC(=O)[C@H]1C[C@H](Cc2ccccc2)CN1)C(=O)NCc1cnc2scc(Cl)c2c1` [Compound I-11, (2R,4S)-4-Benzyl-N—((S)-1-(((3-Chlorothieno[2,3-B]Pyridin-5-Yl)Methyl)Amino)-1-Oxopropan-2-Yl)Pyrrolidine-2-Carboxamide Trifluoroacetate], the Ki was < 500 nM. `Cc1nc(N)ccc1CNC(=O)[C@H](C)NC(=O)[C@H]1C[C@H](Cc2cccc(C3CC3)c2)CN1` [Compound I-44, (2R,4S)—N—((S)-1-(((6-Amino-2-Methylpyridin-3-Yl)Methyl)Amino)-1-Oxopropan-2-Yl)-4-(3-Cyclopropylbenzyl)Pyrrolidine-2-Carboxamide Di-Trifluoroacetate] was tested, and the Ki was < 500 nM. `C[C@H](NC(=O)[C@H]1C[C@@H](c2ccc(-c3ccccc3)cc2)CCN1)C(=O)NCc1ccc(C(=N)N)cc1` [Compound I-69, (2R,4S)-4-([1,1′-Biphenyl]-4-Yl)-N—((S)-1-((4-Carbamimidoylbenzyl)Amino)-1-Oxopropan-2-Yl)Piperidine-2-Carboxamide Di-Trifluoroacetate] was tested, and the Ki was < 500 nM. In the case of `Cc1nc(N)ccc1CNC(=O)[C@H](C)NC(=O)[C@H]1C[C@H](Cc2ccc(C#N)s2)CN1` [Compound I-86, (2R,4R)—N—((S)-1-(((6-Amino-2-Methylpyridin-3-Yl)Methyl)Amino)-1-Oxopropan-2-Yl)-4-((5-Cyanothiophen-2-Yl)Methyl)Pyrrolidine-2-Carboxamide Dihydrochloride], the Ki is reported as < 500 nM. With `C[C@H](NC(=O)[C@H]1C[C@H](Cc2ccccc2)CN1)C(=O)NCc1cc2c(s1)CNC2` [Compound I-99, (2R,4S)-4-Benzyl-N—((S)-1-(((5,6-Dihydro-4H-Thieno[2,3-C]Pyrrol-2-Yl)Methyl)Amino)-1-Oxopropan-2-Yl)Pyrrolidine-2-Carboxamide Di-Trifluoroacetate Salt] the Ki was < 500 nM. For `Cc1cc(C)n(-c2ccc([C@H]3CCN[C@@H](C(=O)N[C@@H](C)C(=O)NCc4ccc(C(=N)N)cc4)C3)cc2)n1` [Compound I-75, (2R,4S)—N—((S)-1-((4-Carbamimidoylbenzyl)Amino)-1-Oxopropan-2-Yl)-4-(4-(3,5-Dimethyl-1H-Pyrazol-1-Yl)Phenyl)Piperidine-2-Carboxamide Dihydrochloride], the Ki was < 500 nM. For `C[C@H](NC(=O)[C@H]1C[C@H](Cc2cc(Cl)c(Cl)s2)CN1)C(=O)NCc1cc2cnccc2[nH]1` [Compound I-22, (2R,4R)—N—((S)-1-(((1H-Pyrrolo[3,2-C]Pyridin-2-Yl)Methyl)Amino)-1-Oxopropan-2-Yl)-4-((4,5-Dichlorothiophen-2-Yl)Methyl)Pyrrolidine-2-Carboxamide Di-Trifluoroacetate], the Ki was < 500 nM. In the case of `Cc1nc(N)ccc1CNC(=O)[C@H](C)NC(=O)[C@H]1C[C@H](Cc2cccc(C(=O)O)c2)CN1` [Compound I-48, 3-(((3S,5R)-5-(((S)-1-(((6-Amino-2-Methylpyridin-3-Yl)Methyl)Amino)-1-Oxopropan-2-Yl)Carbamoyl)Pyrrolidin-3-Yl)Methyl)Benzoic Acid Di-Trifluoroacetate], the Ki is reported as < 500 nM. In the case of `C[C@H](NC(=O)[C@H]1C[C@@H](c2ccc(-c3cccnc3)cc2)CCN1)C(=O)NCc1cc(Cl)ccc1-n1cnnn1` [Compound I-101, (2R,4S)—N—((S)-1-((5-chloro-2-(1H-tetrazol-1-yl)benzyl)amino)-1-oxopropan-2-yl)-4-(4-(pyridin-3-yl)phenyl)piperidine-2-carboxamide trifluoroacetate], the Ki is reported as < 500 nM.
